“Also recorded” adds a separate entry of the source. Where a name gives a salt, the structure may show the parent alone. Read-outs that look alike come from different tables or passages of the source.
How the values were obtained:
[1] = tested on: CLas-positive stems of Valencia sweet orange; settings: branches soaked in DPI 25 μM, 48 h, vs water
[2] = tested on: ROS related genes in C. sinensis protoplast cells; type: cell-based, Citrus sinensis; settings: GA 5 mg/L, 1.8 mM H2O2, 6 h
[3] = tested on: C. sinensis protoplast cells; type: cell-based, Citrus sinensis
[4] = tested on: HLB positive C. sinensis 'Valencia' and 'Vernia'; type: in vivo, Citrus sinensis
[5] = tested on: HLB positive C. sinensis 'Valencia' trees; type: in vivo, Citrus sinensis; settings: for H2O2 concentration in exudates of phloem-enriched bark tissues / cell death (ion leakage) in exudates of phloem-enriched bark tissues: weekly foliar spray, six weeks
[6] = tested on: Arabidopsis; settings: cited from earlier work
[7] = tested on: immortalized rat embryo fibroblasts; settings: cited from earlier work
[8] = tested on: CLas-positive 5-year-old C. sinensis trees; type: in vivo, Citrus sinensis; settings: 7 days post trunk injection of streptomycin
[9] = 6-year-old 'Valencia' and 'Vernia', eight months after GA application
[10] = GA 1,247 ppm foliar spray, 8 months after application
[11] = GA 5 mg/L foliar spray weekly for six weeks
[12] = GA 25 mg/L foliar spray weekly for six weeks
[13] = uric acid 1.8 mM, rutin 0.6 mM, listed as Uric acid

c1ccc2c(c1)[I+]c1ccccc1-2 [DPI, diphenyleneiodonium]
ROS levels (H2O2 concentration) in phloem-enriched bark tissues of CLas-positive stems [1]: reduced

C=C1C[C@]23C[C@@]1(O)CC[C@H]2[C@@]12C=C[C@H](O)[C@@](C)(C(=O)O1)[C@H]2[C@@H]3C(=O)O [GA, Gibberellic acid]
expression of RbohD [2]: inhibited | expression of genes encoding H2O2 scavenging enzymes catalases, ascorbate peroxidases and glutathione peroxidases [2]: induced | death of C. sinensis protoplast cells caused by 1.8 mM H2O2 ([3]; GA 5 mg/L, 24 h): suppresses | plant growth: canopy volume [4, 9]: significantly promoted | plant growth: tree height [4, 9]: significantly promoted | plant growth: trunk diameter [4, 9]: significantly promoted | HLB disease symptoms [4, 10]: significantly reduced; also recorded: suppresses | percentage of symptomatic leaves (ratio symptomatic leaves vs total leaves) [4, 10]: significantly reduced | HLB disease incidence (infected trees) ([4]; in vivo): 100% | H2O2 caused by CLas (phloem exudates) [5, 11]: reduced | ion leakage caused by CLas (phloem exudates) [5, 11]: reduced | H2O2 caused by CLas (phloem exudates) [5, 12]: reduced | ion leakage caused by CLas (phloem exudates) [5, 12]: reduced | growth as indicated by new flushes ([5]; six weeks after foliar spray, vs water control): promoted growth

OO [H2O2]
cell death of C. sinensis protoplast cells ([3]; H2O2 0.6 mmol/L or lower, 24 h): not | cell death of C. sinensis protoplast cells ([3]; H2O2 1.8 mmol/L, 24 h): induced cell death | viability of protoplast cells (FDA staining) ([3]; different concentrations of H2O2, 24 h): kills | concentration inhibiting growth of plants [6]: 1 mM | concentration inducing necrosis [7]: 700 µmol/L

[H]/N=C(/N)N[C@H]1[C@H](O)[C@@H](O)[C@H](O[C@@H]2O[C@@H](C)[C@](O)(C=O)[C@H]2O[C@@H]2O[C@@H](CO)[C@H](O)[C@@H](O)[C@@H]2NC)[C@@H](N/C(N)=N\[H])[C@@H]1O [streptomycin, streptomycin sulfate]
H2O2 content in the phloem tissues [8]: significantly reduced | ion leakage in the phloem tissues [8]: significantly reduced | CLas titers ([8]; phloem tissues): significantly reduced

O=c1[nH]c(=O)c2[nH]c(=O)[nH]c2[nH]1 [uric acid]
H2O2 concentration ([3]; addition of uric acid 0.2 mM (text cites FIG. 5C)): reduced | cell death of protoplast cells caused by H2O2 ([3]; addition of uric acid 0.2 mM, 24 h): reduced | HLB symptoms compared with before treatment ([5]; six weeks after first weekly foliar spray, uric acid 1.8 mM, rutin 0.6 mM, GA): significantly reduced | H2O2 concentration in exudates of phloem-enriched bark tissues ([5]; uric acid 1.8 mM, rutin 0.6 mM): reduced | cell death (ion leakage) in exudates of phloem-enriched bark tissues ([5]; uric acid 1.8 mM, rutin 0.6 mM): reduced | H2O2 concentration in exudates of phloem-enriched bark tissues [5, 13]: reduce | cell death (ion leakage) in exudates of phloem-enriched bark tissues [5, 13]: reduce

Source: patent publication US20240417747A1 (priority 2021, published 2024)
